Patent US20220073532A1, “INHIBITORS OF CGAS ACTIVITY AS THERAPEUTIC AGENTS” (BELLBROOK LABS, LLC, priority 2019, published 2022)
Values after ≈ are worked out from the molar mass of the structure shown. Like-named read-outs stand apart in the source and are kept apart here.

Tests used:
[1] = test system: IRF3-driven Luc expression in THP-1 Dual cells; experiment: THP-1 Dual IRF3-Luc reporter assay; type: cell-based, human
Procedure: (§1) IFN induction in human monocyte cell lines: The human monocyte cell line THP-1 gives a robust cGAS/STING-dependent type I IFN response and has been used extensively for studies on the pathway. Typically, cells are stimulated by transfection with dsDNA and gene expression is assessed using an ELISA for IFNβ, a reporter gene assay, and/or cGAS/STING pathway markers such as STING phosphorylation. These assays were validated using the TBK1 inhibitor, BX-795, which acts downstream of cGAS/STING, as a probe; THP-1 Dual cells (Invivogen, San Diego) are used as the reporter cell line for routine compound testing (FIG. 5A). These assays were optimized, including equalizing responses with transfected DNA and cGAMP and comparing responses between undifferentiated cells and cells that have been differentiated to macrophages (which show little difference). […] Stimulation of THP-1 Dual cells with damage-associated molecular pattern molecules (DAMPs) that act through pattern recognition receptors other than cGAS provides another way to confirm the specificity of putative cGAS inhibitors.

[2] = Mouse microsomal stability (NADPH); type: in vitro ADME; conditions: liver microsomes, read-out: Mouse MS Stability (NADPH) t1/2
Procedure: (§2) ADME/PK: Compounds are tested in Caco-2 and MDR1-MDCK permeability assays to provide a measure of intestinal absorption, blood-brain-permeability and efflux by P-glycoprotein (P-gp), a frequent obstacle to effective CNS delivery. CNS drugs are associated with high passive membrane permeability (Papp>1×10^−6 cm/sec) and have low efflux ratios (Papp(B-A)/Papp(A-B)<2.5). Metabolic stability is tested using mouse and human liver microsomes incubated with NADPH for CYP-dependent metabolism and with UDPGA for glucuronidation. Compounds are tested for pharmacokinetics and brain penetration in mice using oral, intravenous and intraperitoneal administration.

[3] = test system: NFκB-driven SEAP expression in THP-1 Dual cells; experiment: THP-1 Dual NFκB-SEAP reporter assay; type: cell-based, human; conditions: THP-1 Dual cells
Procedure: as §1

[4] = test system: THP1 cGAS KO cells; experiment: Specificity test in THP-Dual cGAS knockout cells; type: cell-based, human
Text: FIG. 5 includes (A) a schematic showing the THP1 dual-cell reporter system: secreted luciferase reports on IRF3-driven transcription; secreted alkaline phosphatase reports on NFκB-driven transcription, both downstream of cGAS/STING. THP-Dual cGAS knockout cells are used to test for non-specific effects; (B) a plot of the dose response for inhibition of Luc expression by Compound 15; (C) a plot of the dose response for inhibition of Luc expression by the TBK1 inhibitor, BX-795; and (D) a plot of the dose response for inhibition of SEAP expression by Compound 15.
as §1

[5] = Ksol (PBS, pH 7.4); type: physicochemical; conditions: pH 7.4, aqueous buffer, kinetic from dmso stock
[6] = target: cGAS (Homo sapiens, UniProt Q8N884); experiment: cGAS enzymatic assay (FP/TR-FRET detection of cGAMP); type: biochemical; set-up: The cGAS assay was used to screen 100,000 compounds with full-length human cGAS; 6xHis; made in house
Chain of cGAS (Q8N884 whole entry): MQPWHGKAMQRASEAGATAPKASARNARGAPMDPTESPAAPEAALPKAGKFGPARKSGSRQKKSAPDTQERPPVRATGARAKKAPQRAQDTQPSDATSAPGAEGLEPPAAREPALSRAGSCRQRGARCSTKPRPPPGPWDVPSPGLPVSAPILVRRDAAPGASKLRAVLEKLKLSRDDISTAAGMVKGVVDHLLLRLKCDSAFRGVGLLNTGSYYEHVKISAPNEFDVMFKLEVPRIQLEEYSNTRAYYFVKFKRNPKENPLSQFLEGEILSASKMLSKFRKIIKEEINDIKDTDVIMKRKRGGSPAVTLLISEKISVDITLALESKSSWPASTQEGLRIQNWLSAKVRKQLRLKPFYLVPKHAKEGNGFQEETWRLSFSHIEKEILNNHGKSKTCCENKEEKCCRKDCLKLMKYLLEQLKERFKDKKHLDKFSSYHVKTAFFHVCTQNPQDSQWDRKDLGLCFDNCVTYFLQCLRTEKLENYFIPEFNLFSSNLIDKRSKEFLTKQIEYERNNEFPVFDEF
How it was run: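 Homogeneous enzymatic assay with FP and TR-FRET read-outs, full-length enzyme at 30 nM. IC50 from dose-response under basal conditions (5 mM MgCl2, 100 μM ATP/GTP), also with 0.2 mM Mn added; values reported as letter bins from A (<100 nM) to E (>10 μM).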

[7] = Human microsomal stability (NADPH); type: in vitro ADME; conditions: liver microsomes, read-out: Human MS Stability (NADPH) t1/2
Procedure: as §2

Cc1nc(N2CCC[C@H]2C(=O)O)c2oc3ccccc3c2n1 [Compound 15, (2-methylbenzofuro[3,2-d]pyrimidin-4-yl)-L-proline]
inhibition of IRF3 (Luc)-driven transcription ([1]; THP-1 Dual cells): 50-75% | inhibition in cGAMP-stimulated cells with cGAS present ([1]; cGAMP-stimulated THP-1 Dual cells): still caused inhibition, though to a lesser degree | cGAS-dependent cellular activity ([1]; human monocyte cell line THP-1): cGAS-dependent inhibition of type I IFN | half-life [2]: > 2 h | inhibition of NFκB (SEAP)-driven transcription [3]: 50-75% | effect on IRF3-driven Luc expression in THP1 cGAS KO cells stimulated with LPS ([4]; LPS-stimulated, cGAS KO): no effect | inhibition in cGAMP-stimulated cells lacking cGAS ([4]; cGAMP-stimulated, cGAS knockout): essentially no inhibition | solubility kinetic [5]: 520 µM (≈ 155 µg/mL) | IC50 ([6]; 5 mM Mg^2+, 0.2 mM Mn^2+, read-out: IC50 (5 mM Mg^2+, 0.2 mM Mn^2+)): 10800 ± 2400 nM | IC50 ([6]; 5 mM Mg^2+, read-out: IC50 (5 mM Mg^2+)): 1260 ± 570 nM | IC50 ([6]; cGAS (30 nM), with Mn^2+, read-out: Inhibition cGAS + Mn^2+): 1000 to 10000 nM | IC50 ([6]; cGAS (30 nM), read-out: Inhibition cGAS): 500 to 1000 nM | MOA ([6]; competition with ATP): ATP Competitive | half-life [7]: > 2 h
